Measurements taken from the CheMixHub viscosity set.
Where “and” joins values, the source holds several entries; their conditions need not be identical. Identical values can stand only once.

Assay: xn = mol fraction of the nth substance listed

C1CCOC1 + CCCCCC
Conditions	viscosity [mPa·s]
293.15 K, 101 kPa, x1 = 0.1171	0.3234
293.15 K, 101 kPa, x1 = 0.23	0.3356
293.15 K, 101 kPa, x1 = 0.3386	0.349
293.15 K, 101 kPa, x1 = 0.4434	0.36
293.15 K, 101 kPa, x1 = 0.5444	0.3797
293.15 K, 101 kPa, x1 = 0.6418	0.4007
293.15 K, 101 kPa, x1 = 0.736	0.4207
293.15 K, 101 kPa, x1 = 0.8269	0.442
293.15 K, 101 kPa, x1 = 0.9149	0.465
298 K, 101 kPa, x2 = 0.0984	0.431
298 K, 101 kPa, x2 = 0.1946	0.407
298 K, 101 kPa, x2 = 0.2979	0.387
298 K, 101 kPa, x2 = 0.3518	0.374
298 K, 101 kPa, x2 = 0.4012	0.365
298 K, 101 kPa, x2 = 0.4477	0.357
298 K, 101 kPa, x2 = 0.4775	0.352
298 K, 101 kPa, x2 = 0.5496	0.342
298 K, 101 kPa, x2 = 0.6159	0.333
298 K, 101 kPa, x2 = 0.6436	0.33
298 K, 101 kPa, x2 = 0.7063	0.323
298 K, 101 kPa, x2 = 0.7549	0.318
298 K, 101 kPa, x2 = 0.7901	0.314
298 K, 101 kPa, x2 = 0.9039	0.303
298.15 K, 101 kPa, x1 = 0.1171	0.3025
298.15 K, 101 kPa, x1 = 0.23	0.3142
298.15 K, 101 kPa, x1 = 0.3386	0.3258
298.15 K, 101 kPa, x1 = 0.4434	0.3381
298.15 K, 101 kPa, x1 = 0.5444	0.357
298.15 K, 101 kPa, x1 = 0.6418	0.3736
298.15 K, 101 kPa, x1 = 0.736	0.3943
298.15 K, 101 kPa, x1 = 0.8269	0.415
298.15 K, 101 kPa, x1 = 0.9149	0.4365
303.15 K, 101.33 kPa, x1 = 0.0971	0.285
303.15 K, 101.33 kPa, x1 = 0.1966	0.295
303.15 K, 101.33 kPa, x1 = 0.3001	0.307
303.15 K, 101.33 kPa, x1 = 0.4	0.32
303.15 K, 101.33 kPa, x1 = 0.5034	0.334
303.15 K, 101.33 kPa, x1 = 0.5974	0.349
303.15 K, 101.33 kPa, x1 = 0.7066	0.369
303.15 K, 101.33 kPa, x1 = 0.7889	0.386
303.15 K, 101.33 kPa, x1 = 0.8992	0.41

CC(C)=O + CCCCCC
298.15 K, 101 kPa
Conditions	viscosity [mPa·s]
x1 = 0.1416	0.303
x1 = 0.2707	0.3137
x1 = 0.3888	0.3047
x1 = 0.4974	0.2983
x1 = 0.5975	0.3043
x1 = 0.6901	0.3039
x1 = 0.776	0.2984
x1 = 0.8559	0.3113
x1 = 0.9304	0.3144

c1ccc2ccccc2c1 + CCCCCC
viscosity
Conditions	298.15 K	303.15 K	308.15 K	313.15 K	318.15 K
101 kPa, x1 = 0.09526	0.3806 mPa·s	0.3636 mPa·s	0.3455 mPa·s	0.331 mPa·s	0.3166 mPa·s
101 kPa, x1 = 0.1771	–	0.4135 mPa·s	0.3922 mPa·s	0.3737 mPa·s	0.3567 mPa·s
101.33 kPa, x1 = 0.09526	0.3806 mPa·s	0.3636 mPa·s and 0.3636 mPa·s	0.3455 mPa·s	0.331 mPa·s	0.3166 mPa·s and 0.3166 mPa·s
101.33 kPa, x1 = 0.1185	–	0.3813 mPa·s	–	–	0.3268 mPa·s
101.33 kPa, x1 = 0.1464	–	0.3926 mPa·s	–	–	0.3406 mPa·s
101.33 kPa, x1 = 0.1771	–	0.4135 mPa·s	–	–	0.3567 mPa·s
101.33 kPa, x1 = 0.18	–	0.4135 mPa·s	0.3922 mPa·s	0.3737 mPa·s	0.3567 mPa·s
101.33 kPa, x1 = 0.2165	–	–	–	–	0.3785 mPa·s

CCCCCCCCC(=O)O + CCCCCC(=O)[O-].[Na+]
100 kPa, x2 = 0.3
Conditions	viscosity [mPa·s]
293.15 K	280.5
298.15 K	209
303.15 K	158.8
308.15 K	122.9
313.15 K	96.5
318.15 K	76.9
323.15 K	62.2

C1CCOC1 + CCCCCCC
viscosity [mPa·s], 101 kPa
Conditions	x1 = 0.1338	x1 = 0.2578	x1 = 0.3733	x1 = 0.4809	x1 = 0.5815	x1 = 0.6758	x1 = 0.7643	x1 = 0.8475	x1 = 0.926
293.15 K	0.403	0.4075	0.413	0.4191	0.4285	0.4385	0.4495	0.4619	0.4751
298.15 K	0.3861	0.3891	0.3935	0.3984	0.4061	0.4146	0.4242	0.4356	0.4465

CC(C)=O + CCCCCCC
296 K, 101.3 kPa
Conditions	viscosity [mPa·s]
x1 = 0.0795	0.385
x1 = 0.1252	0.377
x1 = 0.1699	0.37
x1 = 0.2532	0.362
x1 = 0.3008	0.358
x1 = 0.3956	0.351
x1 = 0.4536	0.347
x1 = 0.5061	0.342
x1 = 0.6193	0.333
x1 = 0.6981	0.328
x1 = 0.7504	0.321
x1 = 0.8116	0.316
x1 = 0.8666	0.314
x1 = 0.9144	0.309
x1 = 0.9678	0.311

Cc1ccccc1 + CCCCCCC
298.15 K, 101 kPa
Conditions	viscosity [mPa·s]
x2 = 0.4771	0.4775
x2 = 0.4859	0.476
x2 = 0.4953	0.474
x2 = 0.4983	0.4735
x2 = 0.4996	0.473
x2 = 0.5045	0.472
x2 = 0.5106	0.471
x2 = 0.5179	0.47
x2 = 0.5212	0.469
x2 = 0.5328	0.467
x2 = 0.5408	0.4655
x2 = 0.55	0.464
x2 = 0.561	0.4615
x2 = 0.579	0.458
x2 = 0.603	0.4535

COc1ccccc1 + CCCCCCCCCCCC
viscosity [mPa·s], 101.3 kPa
Conditions	x1 = 0.1618	x1 = 0.2902	x1 = 0.3869	x1 = 0.4735	x1 = 0.5603	x1 = 0.7159	x1 = 0.843	x1 = 0.9414
293.15 K	1.324	1.228	1.17	1.125	1.092	1.023	–	–
303.15 K	1.123	1.048	–	0.964	0.94	0.903	0.89	0.902
313.15 K	0.967	0.908	0.872	0.843	0.821	0.791	0.781	0.79
323.15 K	0.844	0.797	0.768	0.744	0.726	0.701	0.692	0.699

CCCCCCCCC(=O)O + CCCCCCCCCCCC(=O)O
100 kPa, x2 = 0.25
Conditions	viscosity [mPa·s]
293.15 K	10.12
298.15 K	8.636
303.15 K	7.443
308.15 K	6.47
313.15 K	5.669
318.15 K	5.003
323.15 K	4.444

CCCCCCCCC(=O)O + CCCCCCCCCCCC(=O)[O-].[Na+]
100 kPa, x2 = 0.2
Conditions	viscosity [mPa·s]
293.15 K	68.61
298.15 K	54.38
303.15 K	43.69
308.15 K	35.55
313.15 K	29.28
318.15 K	24.38
323.15 K	20.51

COc1ccccc1 + CCCCCCCCCCCCCCCC
viscosity [mPa·s], 101.3 kPa
Conditions	x1 = 0.1745	x1 = 0.2566	x1 = 0.3849	x1 = 0.4725	x1 = 0.5679	x1 = 0.6889	x1 = 0.8311	x1 = 0.944
293.15 K	2.794	2.566	2.193	1.975	1.773	1.51	1.279	1.131
303.15 K	2.261	2.079	1.806	1.64	1.478	1.286	1.084	0.97
313.15 K	1.866	1.73	1.518	1.387	1.258	1.092	0.942	0.845
323.15 K	1.571	1.436	1.296	1.192	1.088	0.964	0.836	0.747

CCCCCCCCCCCCCCCCC + CCCCCCCCCCO
100 kPa, x1 = 0.076
Conditions	viscosity [mPa·s]
298.2 K	10.21
308.2 K	6.94
318.2 K	4.87

COc1ccccc1 + CCCCCCCCO
viscosity [mPa·s], 101.33 kPa
Conditions	x1 = 0.1001	x1 = 0.2	x1 = 0.3002	x1 = 0.3998	x1 = 0.5	x1 = 0.6002	x1 = 0.7001	x1 = 0.8002	x1 = 0.9
303.15 K	4.86	3.795	3.074	2.432	1.966	1.576	1.217	1.108	0.968
313.15 K	3.589	2.872	2.342	1.922	1.561	1.28	1.014	0.934	0.831
323.15 K	2.702	2.163	1.863	1.547	1.288	1.054	0.843	0.789	0.725

CC1COC(=O)O1 (centres undefined) + CCCCCCCO
298.15 K, 101 kPa
Conditions	viscosity [mPa·s]
x1 = 0.0321	4.755
x1 = 0.1202	4.481
x1 = 0.1934	4.281
x1 = 0.2735	4.035
x1 = 0.3226	3.909
x1 = 0.4002	3.709
x1 = 0.4717	3.534
x1 = 0.5334	3.39
x1 = 0.6111	3.217
x1 = 0.699	3.031
x1 = 0.7602	2.909
x1 = 0.8226	2.789
x1 = 0.8925	2.662
x1 = 0.9674	2.529
